In PMC6079084, “Capacity for instantaneous catabolism of preferred and non-preferred carbon sources in Escherichia coli and Bacillus subtilis” (Scientific Reports, 2018):

Tests used:
[1] = molecular target: T1, PfkA (Bacillus subtilis, UniProt O34529); test: coupled spectrophotometric assay, NADH at […] nm; format: biochemical
T1 construct: full-length, N-terminal His6-Gly3 tag (from primer), recombinant in E. coli BW25113, pTrc99KK, Ni-NTA

[2] = substrate: CC(=O)C(=O)O; test: purified protein; format: biochemical, Bacillus subtilis; conditions: 1 mM ATP, 0.05 mM acetyl-CoA, 15 mM KHCO3, 7 mM MgSO4, 135 mM TEA pH 8, room temperature, pyruvate 0.04-5.0 mM

T1 sequence (O34529 2-319): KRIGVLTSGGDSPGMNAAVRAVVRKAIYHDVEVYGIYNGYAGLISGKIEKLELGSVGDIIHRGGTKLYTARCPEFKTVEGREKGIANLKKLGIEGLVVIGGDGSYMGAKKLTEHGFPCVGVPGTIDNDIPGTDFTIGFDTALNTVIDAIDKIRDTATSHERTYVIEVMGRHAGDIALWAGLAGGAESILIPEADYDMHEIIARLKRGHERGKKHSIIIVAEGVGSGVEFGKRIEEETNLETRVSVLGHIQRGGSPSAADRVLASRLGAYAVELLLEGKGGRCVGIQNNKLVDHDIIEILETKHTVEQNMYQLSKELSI

Molecule | Ki [1] | Km [2]
C=C(OP(=O)(O)O)C(=O)O [PEP, phosphoenolpyruvate] | 40 µM | 
PycA (Bacillus subtilis subsp. subtilis str. 168) (protein, full-length, N-terminal His6-Gly3 tag (from primer), recombinant in E. coli BW25113, pTrc99KK, Ni-NTA) SQQSIQKVLVANRGEIAIRIFRACTELNIRTVAVYSKEDSGSYHRYKADEAYLVGEGKKPIDAYLDIEGIIDIAKRNKVDAIHPGYGFLSENIHFARRCEEEGIVFIGPKSEHLDMFGDKVKAREQAEKAGIPVIPGSDGPAETLEAVEQFGQANGYPIIIKASLGGGGRGMRIVRSESEVKEAYERAKSEAKAAFGNDEVYVEKLIENPKHIEVQVIGDKQGNVVHLFERDCSVQRRHQKVIEVAPSVSLSPELRDQICEAAVALAKNVNYINAGTVEFLVANNEFYFIEVNPRVQVEHTITEMITGVDIVQTQILVAQGHSLHSKKVNIPEQKDIFTIGYAIQSRVTTEDPQNDFMPDTGKIMAYRSGGGFGVRLDTGNSFQGAVITPYYDSLLVKLSTWALTFEQAAAKMVRNLQEFRIRGIKTNIPFLENVAKHEKFLTGQYDTSFIDTTPELFNFPKQKDRGTKMLTYIGNVTVNGFPGIGKKEKPAFDKPLGVKVDVDQQPARGTKQILDEKGAEGLANWVKEQKSVLLTDTTFRDAHQSLLATRIRSHDLKKIANPTAALWPELFSMEMWGGATFDVAYRFLKEDPWKRLEDLRKEVPNTLFQMLLRSSNAVGYTNYPDNVIKEFVKQSAQSGIDVFRIFDSLNWVKGMTLAIDAVRDTGKVAEAAICYTGDILDKNRTKYDLAYYTSMAKELEAAGAHILGIKDMAGLLKPQAAYELVSALKETIDIPVHLHTHDTSGNGIYMYAKAVEAGVDIIDVAVSSMAGLTSQPSASGFYHAMEGNDRRPEMNVQGVELLSQYWESVRKYYSEFESGMKSPHTEIYEHEMPGGQYSNLQQQAKGVGLGDRWNEVKEMYRRVNDMFGDIVKVTPSSKVVGDMALYMVQNNLTEKDVYEKGESLDFPDSVVELFKGNIGQPHGGFPEKLQKLILKGQEPITVRPGELLEPVSFEAIKQEFKEQHNLEISDQDAVAYALYPKVFTDYVKTTESYGDISVLDTPTFFYGMTLGEEIEVEIERGKTLIVKLISIGEPQPDATRVVYFELNGQPREVVIKDESIKSSVQERLKADRTNPSHIAASMPGTVIKVLAEAGTKVNKGDHLMINEAMKMETTVQAPFSGTIKQVHVKNGEPIQTGDLLLEIEKA |  | 100 µM
